The structures appear in SMILES notation.

T1 sequence (Q04609 whole entry): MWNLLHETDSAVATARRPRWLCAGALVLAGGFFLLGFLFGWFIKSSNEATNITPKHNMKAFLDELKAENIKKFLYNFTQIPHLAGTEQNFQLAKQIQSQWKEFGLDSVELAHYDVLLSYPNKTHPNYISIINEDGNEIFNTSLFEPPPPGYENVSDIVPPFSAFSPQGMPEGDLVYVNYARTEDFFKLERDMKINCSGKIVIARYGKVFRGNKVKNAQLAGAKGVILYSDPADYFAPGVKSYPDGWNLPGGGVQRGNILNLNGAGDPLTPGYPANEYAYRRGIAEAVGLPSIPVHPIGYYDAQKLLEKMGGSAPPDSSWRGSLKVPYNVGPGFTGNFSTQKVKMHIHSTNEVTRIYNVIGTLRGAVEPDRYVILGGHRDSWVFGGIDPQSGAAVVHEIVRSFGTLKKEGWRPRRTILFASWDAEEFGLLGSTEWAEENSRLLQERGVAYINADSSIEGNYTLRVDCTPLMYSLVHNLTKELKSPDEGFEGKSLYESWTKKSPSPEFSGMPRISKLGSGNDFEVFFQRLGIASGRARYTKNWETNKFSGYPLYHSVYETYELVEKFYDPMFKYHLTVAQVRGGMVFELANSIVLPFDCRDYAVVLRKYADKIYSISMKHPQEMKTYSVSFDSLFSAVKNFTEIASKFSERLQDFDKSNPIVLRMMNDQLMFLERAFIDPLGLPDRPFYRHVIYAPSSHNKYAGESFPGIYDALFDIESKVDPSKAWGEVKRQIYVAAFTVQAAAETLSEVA

One test has as its target T1, PSMA (target cells: LNCaP cells) (Homo sapiens, UniProt Q04609).
T1 construct: Target cells: LNCaP cells (typically 1000-20,000 cells per well); endogenous in cells; host or cells: LNCaP cells (target cells); Jurkat FcγRIIIa/NFAT-luciferase reporter cells also in the well
In words: Antibody dependent cellular cytotoxicity (ADCC) reporter assay. It is filed as cell-based. On the set-up: key to ADCC Reporter Assay pEC50: Inactive: inactive = pEC50 < 5. The conditions noted are these: anti-cotinine antibody (SEQ ID NO: 11/12), Jurkat FcγRIIIa NFAT-luciferase reporter cells, 12-18 hours, EC50 in molar, average if more than one run. On the procedure: An antibody dependent cellular cytotoxicity (ADCC) reporter assay was conducted using the following four assay components: (i) ARM compound of Formula (I) targeting PSMA (concentrations ranging from 1 pM to 10 μM); (ii) anti-cotinine antibody having a heavy chain sequence of SEQ ID NO: 11 and a light chain sequence of SEQ ID NO: 12 (rabbit variable region with human IgG1 Fc domain containing DE mutation (S239D/I332E)) (concentrations ranging from 0.01 μg/mL-200 μg/mL); (iii) Target cells: LNCaP cells (typically 1000-20,000 cells per well); and (iv) Reporter cells—Jurkat cells engineered to express FcγRIIIa with a reporter gene luciferase under the control of the NFAT promoter (typically 3000-75,000 cells per well). Reagents were combined in final volume of 20 μL in 384—well tissue culture treated plate. All four assay components were incubated together for about 12-18 hours. Thereafter, BioGlo Detection reagent (Promega) was added to the wells to lyse the cells and provide a substrate for the luciferase reporter protein.
Luminescence signal was measured on a microplate reader capable of measuring luminescence and signal: background was calculated by dividing the signal of a test well by the signal obtained when no compound of formula (I) was included in the assay. EC50 calculations were done using Graphpad Prism Software, specifically a nonlinear regression curve fit (Y=Bottom+(Top−Bottom)/(1+10^((Log EC50−X)*HillSlope))).
ARMs compounds of Formula (I) were tested for ADCC activity in the above assay in one or more experimental runs and the results are shown in Table 3 below. Potency of the compounds of Formula (I) is reported as a pEC50 values. The pEC50 value is the negative log of the EC50 value, wherein the EC50 value is half maximal effective concentration measured in molar (M). For compounds tested in more than one experimental run, the pEC50 value is reported as an average.
On the technique in general: Reporter assays use an easily measured gene product as a stand-in for the process of interest.
For `CN1C(=O)C[C@H](C(=O)N[C@@H](Cc2ccc3ccccc3c2)C(=O)NCCCC[C@H](NC(=O)N[C@@H](CCC(=O)O)C(=O)O)C(=O)O)[C@H]1c1cccnc1` [Example 10, (((S)-1-Carboxy-5-((S)-2-((2S,3S)-1-methyl-5-oxo-2-(pyridin-3-yl)pyrrolidine-3-carboxamido)-3-(naphthalen-2-yl)propanamido)pentyl)carbamoyl)-L-glutamic acid], the “ADCC Reporter Assay pEC50” value is reported as “Inactive^1”.

The same test, now with this note: anti-cotinine antibody (SEQ ID NO: 11/12), Jurkat FcγRIIIa NFAT-luciferase reporter cells, 12-18 hours, EC50 in molar, average if more than one run, read-out: ADCC Reporter Assay pEC50 (converted).
Regarding `CN1C(=O)C[C@H](C(=O)NCCO[C@H]2CC[C@H](OCCCC(=O)N[C@H]3CC[C@H](C(=O)N[C@@H](Cc4ccc5ccccc5c4)C(=O)NCCCC[C@H](NC(=O)N[C@@H](CCC(=O)O)C(=O)O)C(=O)O)CC3)CC2)[C@H]1c1cccnc1` (racemic) [Example 8, (((S)-1-Carboxy-5-((S)-2-((1R,4S)-4-(4-(((1S,4R)-4-(2-((2S,3S)-1-methyl-5-oxo-2-(pyridin-3-yl)pyrrolidine-3-carboxamido)ethoxy)cyclohexyl)oxy)butanamido)cyclohexane-1-carboxamido)-3-(naphthalen-2-yl)propanamido)pentyl)carbamoyl)-L-glutamic acid], the EC50 is 2.24 nM. In the case of `CN1C(=O)C[C@H](C(=O)NCCO[C@H]2CC[C@H](OCCCC(=O)N[C@H]3CC[C@H](C(=O)N4CCN(C(=O)CC[C@H](NC(=O)N[C@@H](CCC(=O)O)C(=O)O)C(=O)O)CC4)CC3)CC2)[C@H]1c1cccnc1` [Example 1, (((S)-1-Carboxy-4-(4-((1R,4R)-4-(4-(((1S,4R)-4-(2-((2S,3S)-1-methyl-5-oxo-2-(pyridin-3-yl)pyrrolidine-3-carboxamido)ethoxy)cyclohexyl)oxy)butanamido)cyclohexane-1-carbonyl)piperazin-1-yl)-4-oxobutyl)carbamoyl)-L-glutamic acid], the EC50 was 50.1 nM. Still for that read-out and setting: next, `CN1C(=O)C[C@H](C(=O)NCCO[C@H]2CC[C@H](OCCCC(=O)N[C@H]3CC[C@H](C(=O)N[C@H]4CC[C@@H](NC(=O)CC[C@H](NC(=O)N[C@@H](CCC(=O)O)C(=O)O)C(=O)O)CC4)CC3)CC2)[C@H]1c1cccnc1` [Example 2, (((S)-1-Carboxy-4-(((1S,4S)-4-((1R,4S)-4-(4-(((1S,4R)-4-(2-((2S,3S)-1-methyl-5-oxo-2-(pyridin-3-yl)pyrrolidine-3-carboxamido)ethoxy)cyclohexyl)oxy)butanamido)cyclohexane-1-carboxamido)cyclohexyl)amino)-4-oxobutyl)carbamoyl)-L-glutamic acid]: 50.1 nM; `CN1C(=O)C[C@H](C(=O)NCCO[C@H]2CC[C@H](OCCCC(=O)N[C@H]3CC[C@H](C(=O)NCCNC(=O)CC[C@H](NC(=O)N[C@@H](CCC(=O)O)C(=O)O)C(=O)O)CC3)CC2)[C@H]1c1cccnc1` [Example 3, (9S,13S)-1-((1R,4R)-4-(4-(((1S,4R)-4-(2-((2S,3S)-1-Methyl-5-oxo-2-(pyridin-3-yl)pyrrolidine-3-carboxamido)ethoxy)cyclohexyl)oxy)butanamido)cyclohexyl)-1,6,11-trioxo-2,5,10,12-tetraazapentadecane-9,13,15-tricarboxylic acid]: 126 nM. As to `CN1C(=O)C[C@H](C(=O)NCCO[C@H]2CC[C@H](OCCCC(=O)N[C@H]3CC[C@H](C(=O)N[C@H]4CC[C@H](NC(=O)CC[C@H](NC(=O)N[C@@H](CCC(=O)O)C(=O)O)C(=O)O)CC4)CC3)CC2)[C@H]1c1cccnc1` [Example 4, (((S)-1-Carboxy-4-(((1R,4R)-4-((1R,4R)-4-(4-(((1S,4R)-4-(2-((2S,3S)-1-methyl-5-oxo-2-(pyridin-3-yl)pyrrolidine-3-carboxamido)ethoxy)cyclohexyl)oxy)butanamido)cyclohexane-1-carboxamido)cyclohexyl)amino)-4-oxobutyl)carbamoyl)-L-glutamic acid], the EC50 is 50.1 nM.

As for `CN1C(=O)C[C@H](C(=O)NCCNC(=O)[C@H](Cc2ccccc2)NC(=O)[C@H](Cc2ccccc2)NC(=O)CCCCCCCNC(=O)CC[C@H](NC(=O)N[C@@H](CCC(=O)O)C(=O)O)C(=O)O)[C@H]1c1cccnc1` [Example 5, (7S,10S,24S,28S)-7,10-Dibenzyl-1-((2S,3S)-1-methyl-5-oxo-2-(pyridin-3-yl)pyrrolidin-3-yl)-1,6,9,12,21,26-hexaoxo-2,5,8,11,20,25,27-heptaazatriacontane-24,28,30-tricarboxylic acid], the EC50 is 39.8 nM. Turning to `CN1C(=O)C[C@H](C(=O)NCCO[C@H]2CC[C@H](OCCCC(=O)N[C@H]3CC[C@H](C(=O)NCCNC(=O)[C@H](Cc4ccccc4)NC(=O)[C@H](Cc4ccccc4)NC(=O)CCCCCCCNC(=O)CC[C@H](NC(=O)N[C@@H](CCC(=O)O)C(=O)O)C(=O)O)CC3)CC2)[C@H]1c1cccnc1` [Example 6, (7S,10S,24S,28S)-7,10-dibenzyl-1-((1R,4S)-4-(4-(((1S,4R)-4-(2-((2S,3S)-1-methyl-5-oxo-2-(pyridin-3-yl)pyrrolidine-3-carboxamido)ethoxy)cyclohexyl)oxy)butanamido)cyclohexyl)-1,6,9,12,21,26-hexaoxo-2,5,8,11,20,25,27-heptaazatriacontane-24,28,30-tricarboxylic acid], the EC50 is 39.8 nM. Take `CN1C(=O)C[C@H](C(=O)NCCOCCOCCOCCOCCOCCOCCOCCOCCOCCOCCOCCOCCC(=O)NCCNC(=O)[C@H](Cc2ccccc2)NC(=O)[C@H](Cc2ccccc2)NC(=O)CCCCCCCNC(=O)CC[C@H](NC(=O)N[C@@H](CCC(=O)O)C(=O)O)C(=O)O)[C@H]1c1cccnc1` [Example 7, (47S,50S,64S,68S)-47,50-Dibenzyl-1-((2S,3S)-1-methyl-5-oxo-2-(pyridin-3-yl)pyrrolidin-3-yl)-1,41,46,49,52,61,66-heptaoxo-5,8,11,14,17,20,23,26,29,32,35,38-dodecaoxa-2,42,45,48,51,60,65,67-octaazaheptacontane-64,68,70-tricarboxylic acid]: the EC50 is 126 nM. Regarding `CN1C(=O)C[C@H](C(=O)NCCOCCOCCOCCOCCOCCOCCOCCOCCOCCOCCOCCOCCC(=O)N[C@@H](Cc2ccc3ccccc3c2)C(=O)NCCCC[C@H](NC(=O)N[C@@H](CCC(=O)O)C(=O)O)C(=O)O)[C@H]1c1cccnc1` [Example 9, (((S)-1-Carboxy-5-((S)-2-(1-((2S,3S)-1-methyl-5-oxo-2-(pyridin-3-yl)pyrrolidin-3-yl)-1-oxo-5,8,11,14,17,20,23,26,29,32,35,38-dodecaoxa-2-azahentetracontan-41-amido)-3-(naphthalen-2-yl)propanamido)pentyl)carbamoyl)-L-glutamic acid], the EC50 is 8.91 nM.

The record behind these values is patent publication US20250057827A1, “CYTOTOXICITY TARGETING CHIMERAS FOR PROSTATE SPECIFIC MEMBRANE ANTIGEN-EXPRESSING CELLS” (GLAXOSMITHKLINE INTELLECTUAL PROPERTY DEVELOPMENT LIMITED, priority 2022, published 2025).
